The source of these data is patent US9777037B2, “Neurosteroid compounds” (BIONATURE E. A. LTD., priority 2007, dated 2017).

Assay [1] has as its system Neural-crest derived PC12 cells. The assay is described as follows: APOPercentage apoptosis assay, serum-deprivation induced apoptosis of PC12 cells. To be noted: Rattus norvegicus, PC-12, absence of serum 12 hours, ApoPercentage assay (FIG. 2), read-out: IC50 of anti-apoptotic, cytoprotective effect. Type of assay: cell-based, rat. Here is the method: Neural-crest derived PC12 cells were maintained in culture at 5% CO2, at 37° C., in RPMI 1640 medium containing 2 mM L-glutamine, 15 mM HEPES, 100 units/ml penicillin, 0.1 mg/ml streptomycin, 10% horse serum, and 5% foetal calf serum. Serum free medium was supplemented with 1% bovine serum albumin (BSA). Different steroids, used at various concentrations, were initially diluted in ethanol. The final concentration of ethanol in each well, including controls was 0.01%. Conjugate DHEA-BSA was initially diluted in Phosphate Buffer Saline (PBS).
Cells were cultured in the absence of serum for 12 hours, supplemented with DHEA and various synthetic spiro neurosteroids at 10 nM. Cell apoptosis was quantitated with two different methods: The APOPercentage Apoptosis Assay (Biocolor Ltd., Belfast, N. Ireland) was used to quantify apoptosis, according to the manufacturer's instructions. Apoptosis was quantified following cell lysis by measuring the dye incorporated in apoptotic cells at 550 nm (reference filter 620 nm) using a colour filter microplate colorimeter (Dynatech MicroElisa reader, Chantilly, Va.) (see FIGS. 1 and 2). FACS Analysis: FACS analysis of apoptotic cells was performed according to our protocol (Proc Natl Acad Sci USA 101,8209 (2004)). Flow cytometry was performed with FACScan (Becton Dickinson, Heidelberg, Germany) and the results were analysed with the FACScan and Cell Quest softwares (see FIG. 3).

The subject of assay [2] is Bcl-2 and Bcl-xL proteins. The assay is described as follows: Western blot of anti-apoptotic Bcl-2 and Bcl-xL proteins in serum-deprived PC12 cells. Type of assay: cell-based, rat. To be noted: 10 nM neurosteroid (FIG. 4). The protocol:
Neural-crest derived PC12 cells were cultured for 8 hours in the absence of serum, but supplemented with 10 nM of various neurosteroids. At the end of incubation cell lysates were subjected to electrophoresis through a 12% SDS-polyacrylamide gel. Then, proteins were transferred to nitrocellulose membranes, which were processed according to standard Western blotting procedures. To detect protein levels, membranes were incubated with the appropriate antibodies: Bcl-2, (Santa Cruz Biotechnology Inc., Santa Cruz, Calif., dilution 1:100) Bcl-xL (Cell Signalling Technology Inc., Beverly, Mass., dilution 1:100). A PC-based Image Analysis program was used to quantify the intensity of each band (Image Analysis, Inc., Ontario, Canada). To normalize for protein content, the blots were stripped and stained with anti-actin antibodies (Chemicon, Temecula, Calif., dilution 1:400); the concentration of each target protein was normalized versus actin.

The target of another assay is T1, TrkA NGF receptors (Homo sapiens, UniProt P04629).
T1 construct: expressed in transfected cells; host or cells: HEK293
The assay is described as follows: [3H]DHEA competition binding on membranes from HEK293 TrkA cells. To be noted: membranes from HEK293 TrkA cells (FIG. 9). Here is the method:
(§1) HEK293 cells were transfected with the cDNAs of TrkA and p75NTR, the high and low affinity receptors for nerve growth factor (NGF) (Ann Rev Biochem 72:604, 2003). Transfectants expressing the two NGF receptor subtypes were cultured in flasks and, after washing twice with PBS, they were detached from the flasks. After a centrifugation at 1500 g, they were homogenized by sonication, in a 50 mM Tris-HCl buffer pH 7.4 at 4° C., containing freshly added protease inhibitors (1 mM PMSF and 1 μg/ml aprotinin). Unbroken cells were removed by centrifugation at 1500 g (10 min at 4° C.), and membranes were collected by centrifuging at 102,000 g for 1 hr at 4° C. Membranes were washed once with Tris-HCl, briefly acidified at 4° C. (for 3 min) with 50 mM glycine (pH 5.0), and re-suspended in the same buffer. Protein content was assayed by the method of Bradford, using reagents from Bio-Rad (Hercules, Calif.). Membranes (at a final concentration of 2 mg/ml) were incubated with 5 nM [^3H]DHEA, in the absence (to determine the total binding) or presence of unlabelled BNN-124 at concentrations varying from 10^−12 to 10^−6 M and at a final volume of 100 μl, in Tris-HCl buffer (50 mM, pH 7.4). […] The filters were washed three times with ice-cold Tris-HCl, dried and counted in a β-scintillation counter (Perkin Elmer, Foster City, Calif.) with 60% efficiency for tritium.

Assay [3] deals with Bcl-2 protein and ERK1/2 kinase. The assay is described as follows: Western blot of Bcl-2 and phosphorylated ERK1/2 in serum deprived PC12 cells. The format is cell-based, rat. To be noted: 8 hours, 10 nM BNN-124 or 20 ng/ml NGF (FIG. 9). Here is the method:
Neural-crest derived PC12 cells were cultured for 8 hours in the absence of serum, but supplemented with 10 nM of synthetic neurosteroids of 20 ng/ml of NGF. At the end of incubation cell lysates were subjected to electrophoresis through a 12% SDS-polyacrylamide gel. Then proteins were transferred to nitrocellulose membranes, which were processed according to standard Western blotting procedures. To detect protein levels, membranes were incubated with the appropriate antibodies: Bcl-2 (Santa Cruz Biotechnology Inc., Santa Cruz, Calif., dilution 1:100), phosphorylated ERK1/2 (Cell Signalling Technology Inc., Beverly, Mass., dilution 1:100). To normalize for protein content, the blots were stripped and stained with anti-actin or anti-total ERK1/2 antibodies (Chemicon, Temecula, Calif., dilution 1:400).

A further assay addresses T2, p75NTR NGF receptors (Homo sapiens, UniProt P08138).
T2 construct: expressed in transfected cells; host or cells: HEK293
T2 sequence (P08138 29-427): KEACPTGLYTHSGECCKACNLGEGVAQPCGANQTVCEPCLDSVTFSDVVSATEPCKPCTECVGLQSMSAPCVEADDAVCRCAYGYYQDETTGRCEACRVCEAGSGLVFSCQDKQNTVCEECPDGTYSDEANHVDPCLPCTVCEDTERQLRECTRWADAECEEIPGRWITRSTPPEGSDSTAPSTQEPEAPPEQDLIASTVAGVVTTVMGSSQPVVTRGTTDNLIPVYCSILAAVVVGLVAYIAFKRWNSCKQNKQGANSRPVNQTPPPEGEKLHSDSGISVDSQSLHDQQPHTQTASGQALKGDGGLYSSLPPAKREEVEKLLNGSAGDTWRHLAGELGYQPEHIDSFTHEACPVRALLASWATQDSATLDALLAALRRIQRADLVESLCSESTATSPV
The assay is described as follows: [3H]DHEA competition binding on membranes from HEK293 p75NTR cells. To be noted: membranes from HEK293 p75NTR cells (FIG. 9). Here is the method:
as §1

Assay [4] has as its system DHEA specific membrane receptors. The assay is described as follows: [3H]DHEA competition binding on isolated PC12 cell membranes. Also noted: species or system rat. Here is the method:
PC12 rat sympathoadrenal cells were cultured in 225 cm^2 flasks and, after washing twice with PBS, they were detached from the flasks by vigorous shaking. After a centrifugation at 1500 g, they were homogenized by sonication, in a 50 mM Tris-HCl buffer pH 7.4 at 4° C., containing freshly added protease inhibitors (1 mM PMSF and 1 μg/ml aprotinin). Unbroken cells were removed by centrifugation at 1500 g (10 min at 4° C.), and membranes were collected by centrifuging at 102,000 g for 1 hr at 4° C. Membranes were washed once with Tris-HCl, briefly acidified at 4° C. (for 3 min) with 50 mM glycine (pH 5.0), and re-suspended in the same buffer. Protein content was assayed by the method of Bradford, using reagents from Bio-Rad (Hercules, Calif.). Membranes (at a final concentration of 2 mg/ml) were incubated with 5 nM [^3H]DHEA, in the absence (to determine the total binding) or presence of unlabeled neurosteroids and their synthetic spiro analogs, at concentrations varying from 10^−12 to 10^−6 M and at a final volume of 100 μl, in Tris-HCl buffer (50 mM, pH 7.4). Following a […] incubation in a water bath, at 37° C., membranes were collected on GF/B filters, prewet in 0.5% PEI solution at 4° C. The filters were washed three times with ice-cold Tris-HCl, dried, supplemented with scintillation medium (Sigma Hellas, Athens, Greece) and counted in a β-scintillation counter (Perkin Elmer, Foster City, Calif.) with 60% efficiency for Tritium.

In general, IC50 refers to the concentration that inhibits the measured activity by half. By Kd is commonly meant the equilibrium constant for the complex coming apart. Higher therefore signals weaker binding.

T1 sequence (P04629 33-796): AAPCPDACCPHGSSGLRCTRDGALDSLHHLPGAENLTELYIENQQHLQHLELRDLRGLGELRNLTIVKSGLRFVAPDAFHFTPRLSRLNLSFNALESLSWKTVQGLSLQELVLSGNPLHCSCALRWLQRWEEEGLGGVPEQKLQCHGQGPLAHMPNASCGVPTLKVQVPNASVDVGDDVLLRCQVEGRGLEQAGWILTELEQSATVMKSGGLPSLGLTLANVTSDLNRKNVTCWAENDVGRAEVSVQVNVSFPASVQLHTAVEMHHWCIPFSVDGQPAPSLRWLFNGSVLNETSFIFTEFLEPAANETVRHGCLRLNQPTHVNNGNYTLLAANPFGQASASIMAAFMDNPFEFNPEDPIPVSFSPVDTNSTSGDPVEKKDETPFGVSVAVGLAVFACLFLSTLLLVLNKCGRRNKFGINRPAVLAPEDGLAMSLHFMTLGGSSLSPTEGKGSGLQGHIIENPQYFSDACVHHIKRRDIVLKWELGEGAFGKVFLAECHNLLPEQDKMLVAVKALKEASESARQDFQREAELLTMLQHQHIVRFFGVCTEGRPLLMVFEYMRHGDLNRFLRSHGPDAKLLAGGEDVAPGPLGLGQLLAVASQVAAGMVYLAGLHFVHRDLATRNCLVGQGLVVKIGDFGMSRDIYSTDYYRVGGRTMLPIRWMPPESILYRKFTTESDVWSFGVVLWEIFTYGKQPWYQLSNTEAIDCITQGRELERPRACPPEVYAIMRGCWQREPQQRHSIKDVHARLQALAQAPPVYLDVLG

With `C[C@]12CC[C@H](O)CC1=CCC1C2CC[C@@]2(C)C1CC[C@]21O[C@H]1CO` (stereo partly drawn) [BNN-124, (20S)-3β,21-dihydroxy-17β,20-epoxy-5-pregnene], in assay [1], the IC50 was found to be 68.4 nM. In assay [2], the “levels of anti-apoptotic Bcl-2 and Bcl-xL proteins” value is reported as “preventing this effect”. For the same compound, the Kd was found to be 0.29 nM on TrkA NGF receptors; 1 nM at p75NTR NGF receptors; 0.33 nM in assay [4] (isolated PC12 cell membranes, 5 nM [3H]DHEA (FIG. 5)). Moreover, the “induction of anti-apoptotic Bcl-2 protein and phosphorylation of ERK1/2 kinase” value in assay [3] is given as “same effect”. Besides, the “displacement of specific [3H]DHEA binding” value in assay [4] (at 1 μM, PC12 cell membranes) is reported as “approximately 60%”.
